Experimental data reported in patent US20250161317A1, “MOLIDUSTAT FORMULATIONS AND METHODS OF USE FOR TREATMENT OF ANEMIA IN CATS” (ELANCO US INC., priority 2022, published 2025).

Legend:
[1] = tested on: cats with anemia associated with CKD; test: Placebo-controlled field study, efficacy (HCT/PCV) in cats with anemia associated with CKD; type: in vivo, cat
Description: The objective of this study was to evaluate the safety and efficacy of molidustat to manage anemia associated with chronic kidney disease (CKD) in cats.
A total of 65 cats were screened at 11 US and 9 EU sites. Twenty-three (23) cats (13 cases from 9 sites in the US and 10 cases from 9 sites in the EU), with nearly equally distributed genders, mostly domestic shorthair breed, ranging in age from 4 to 17 years, and having initial body weights between 2 and 6 kilograms, were randomized and administered one of the two treatments. A total of 21 cats were included in the 28-day efficacy phase.

Erythropoietin (EPO) = test: Erythropoietin concentrations after single oral administration (Example 2); type: in vivo, cat; conditions: 6 hours after treatment, oral 3.0 mg/kg to fed or fasted cats
Experimental: (§1) Four adult, healthy, female European Shorthaired cats were selected for the study. On the day prior to treatment feed was withdrawn to ensure a fasted prandial state for the oral treatment.
(§2) The animals were treated in a fasted prandial state with the test item at a single oral dose rate of 3.0 mg/kg. After a wash out period of 14 days the animals were treated with the test item at the same dose rate and same administration route, but in a fed prandial state. Frequent blood samplings at fixed intervals were performed over a period of 48 hours after each treatment.
(§3) Peak and extent of plasma exposure of molidustat was higher if administered orally as sodium salt to cats at fasted prandial state compared to fed prandial state. Metabolized molidustat amounted to approximately 60% in total exposure independent of prandial state.

[2] = Plasma pharmacokinetics after repeated once daily oral dosing of 2.5% (m/v) oily suspension; type: in vivo, cat; conditions: for AUC / Cmax / Tmax / half-life: both sexes, plasma, po, 4.8 mg/kg, 4.8 mg molidustat sodium per kg once daily oral, geometric mean (CV)
Experimental: Following a single group design, eight healthy, young adult cats (4 neutered males, 4 spayed females) were included in the study. The animals were between 14 and 15.5 months old and weighed between 3.35 and 4.95 kg at start of the in-life phase.
The dose rate administered was 4.8 mg molidustat sodium per kg. Dosing was once daily on 6 consecutive days keeping an interval of 24 h. Dose rate calculation was based on the body weights determined on SD-1 for all administrations.
Thirty-one blood samples were drawn per animal following a pre-determined schedule deemed suitable to describe the pharmacokinetic profile of the active substance contained in the test item after repeated dosing to cats.
Concentrations of the active substance molidustat and its major metabolite in plasma were analyzed by High Performance Liquid Chromatography/Tandem Mass Spectrometry. The lower limit of quantitation was 5 μg/L for each substance.
Pharmacokinetic evaluation of plasma concentration data was based on the observed data using non-compartmental methods and comprised all PK-parameters to adequately describe the absorption, distribution and elimination phase of the active substance and its metabolite after repeated dosing with the test item.

cats = test: Clinical tolerance after two oral treatments (Example 2); type: in vivo; conditions: two oral treatments at 3.0 mg/kg in cats
Experimental: as §2, §3

[3] = tested on: cats with anemia associated with CKD; test: Field study, in-use safety in cats with anemia associated with CKD
Experimental: This study was conducted using a single protocol in the United States (US, n=23 clinics) and Europe (EU, n=11 clinics) over a 10 month period. On study day (SD) −7 (±2 days), blood was collected for serum chemistry and hematology from cats that qualified for enrollment. After meeting enrollment criteria, cats were orally treated once daily for at least 28 consecutive days (SD 0 to SD 27) with either the control product (CP [vehicle]) or molidustat. The molidustat was administered orally at a dose of 5 mg/kg body weight (bw) (0.2 mL/kg bw). Blood was collected to assess hematological parameters on SDs 0, 7, 14, 21 and 28 (±2 days for all time points except SD 0). Blood was also collected for evaluating serum chemistry on SD 28 (±2 days), except creatinine. Hematocrit (HCT) and packed cell volumes (PCV, performed at each clinic) were the primary hematological parameters of interest. Individual animal treatment success was evaluated up to and including SD 28±2 using three different criteria, as well as using only the data on SD 28.

[4] = Plasma pharmacokinetic study after single oral administration to fasted and fed cats; type: in vivo, cat; conditions: for AUC / AUC(0-t) / Cmax / Tmax: female, European Shorthaired, plasma, po, 3 mg/kg; for AUC / AUC(0-t) / Cmax / Tmax / Clb / MRTint / Vz / t1//2: 3.0 mg molidustat sodium per kg; for AUC / AUC(0-t) / Cmax / Clb / MRTint / Vz / t1//2: geometric mean; for Tmax: median
Experimental: as §1
The pharmacokinetic profile of the HIF-PHI was determined in plasma of 3 adult, female, healthy European Shorthaired cats with a mean body weight of 3.5 kg (StD=0.41 kg). One animal was removed from the study due to difficult handling of the animal.
as §2
The plasma samples were analyzed with regard to their concentrations of molidustat and its metabolite by HPLC using a tandem mass spectrometric detector (AB Sciex API 4000).
From the individual plasma concentration-time-profiles obtained pharmacokinetics (PK) were derived using non-compartmental analyses.

[5] = SD 21, baseline-controlled analysis
[6] = SD 28, baseline-controlled analysis

For `O=c1c(-n2ccnn2)c[nH]n1-c1cc(N2CCOCC2)ncn1` [molidustat, 2-[6-(morpholin-4-yl)pyrimidin-4-yl]-4-(1H-1,2,3-triazol-1-yl)-2,3-dihydro-1H-pyrazol-3-one], the “HCT and PCV levels throughout the continuation phase” value ([1]; 8 cats, 5 mg/kg or intermittent 2.5 mg/kg) was “maintained or increased”, the “PCV increase relative to baseline” value ([1]; SD 14, p=0.0167) was 2.21% and the “HCT increase relative to baseline” value ([1]; SD 14, p=0.0643) was 1.87%. The “HCT difference from average baseline” value [1, 5] was 3.91%, the “PCV difference from average baseline” value [1, 5] was 3.46% and the “HCT and PCV results compared to the CP group” value ([1]; SD 21, p-values<0.01) was “significantly greater”. The “PCV/HCT in comparison to SD 0” value ([1]; SD 21 and SD 28, once daily for 28 days at 5 mg/kg, anemic cats) was “significantly increased”, the “HCT difference from average baseline” value [1, 6] was 3.68% and the “PCV difference from average baseline” value [1, 6] was 3.89%. The “HCT and PCV increases compared to the CP group” value ([1]; SD 28, p<0.061) was “approached statistical significance”, the “Erythropoietin (EPO) concentrations” value (Erythropoietin (EPO)) was “highly increased” and the AUC ([2]; first dose) was 13300 ng·h/mL. It also gave a Cmax ([2]; first dose) of 4460 ng/mL, a Tmax ([2]; first dose) of 0.64 h and a half-life ([2]; first dose) of 4.2 h. For the same compound, the AUC ([2]; last (6th) dose) was 13300 ng·h/mL, the Cmax ([2]; last (6th) dose) was 4100 ng/mL and the Tmax ([2]; last (6th) dose) was 0.94 h. The half-life ([2]; last (6th) dose) was 6.5 h, the accumulation index ([2]; repeated once daily oral dosing, 6 days) was 1.1 and the clinical tolerance (cats) was “clinically well tolerated without any clinical signs of intolerance”. The “treatment related adverse events” value ([3]; alone or with concomitant medications for CKD) was “No treatment related adverse events”, the tolerability of treatment ([3]; once daily for 28 days at 5 mg/kg) was “well tolerated” and the AUC ([4]; oral to fasted cats) was 8420 ng·h/mL. The AUC(0-t) ([4]; oral to fasted cats) was 8410 ng·h/mL, the Cmax ([4]; oral to fasted cats) was 3130 ng/mL and the Tmax ([4]; oral to fasted cats) was 0.67 h. For the same compound, the AUC ([4]; oral to fed cats) was 6300 ng·h/mL, the AUC(0-t) ([4]; oral to fed cats) was 6280 ng·h/mL and the Cmax ([4]; oral to fed cats) was 930 ng/mL. For the same compound, the Tmax ([4]; oral to fed cats) was 1 h, the “peak and extent of plasma exposure, fasted compared to fed prandial state” value ([4]; oral as sodium salt, 3.0 mg/kg) was “higher” and the Clb ([4]; oral to fasted cats) was 6 mL/min/kg. It also gave an MRTint ([4]; oral to fasted cats) of 3.7 h, a Vz ([4]; oral to fasted cats) of 3.74 L/kg and a t1//2 ([4]; oral to fasted cats) of 7.28 h. For the same compound, the Clb ([4]; oral to fed cats) was 8 mL/min/kg, the MRTint ([4]; oral to fed cats) was 7.0 h and the Vz ([4]; oral to fed cats) was 4.59 L/kg. The t1//2 ([4]; oral to fed cats) was 6.69 h.
